Data: patent publication US5399697A, “N,N',N'-trisubstituted-5-bisaminomethylene-1,3-dioxane-4,6-dione inhibitors of acyl-CoA:cholesterol-acyl transferase” (American Home Products Corporation, priority 1993, dated 1995)
pIC50: −log10 of the molar value. Like-named read-outs stand apart in the source and are kept apart here.

System: acyl-coenzyme A: cholesterol acyltransferase
Test: Inhibition of ACAT / intracellular cholesterol esterification in vitro (procedure of Ross et al.)
Assay type: cell-based

SMILES	% Inhibition (50 μM) [%]	pIC50 (read-out: IC50)	% Inhibition (25 μM) [%]	pIC50
CCCCCCN(CCCCCC)C(Nc1ccc(OC)cc1OC)=C1C(=O)OC(C)(C)OC1=O [Compound 1, 5-[(Dihexylamino)[(2,4-dimethoxyphenyl)amino]methylene]-2,2-dimethyl-1,3-dioxane-4,6-dione]	65	–	–	–
CCCCCCN(CCCCCC)C(Nc1ccc(F)cc1)=C1C(=O)OC(C)(C)OC1=O [Compound 3, 5-[(Dihexylamino)[(4-fluorophenyl)amino]methylene]-2,2-dimethyl-1,3-dioxane-4,6-dione]	77	5.05	–	–
COc1ccc(NC(NCC2(c3ccccc3)CCCC2)=C2C(=O)OC(C)(C)OC2=O)c(OC)c1 [Compound 9, 5-[[(2,4-Dimethoxyphenyl)amino][[(1-phenylcyclopentyl)methyl]amino]methylene]-2,2-dimethyl-1,3-dioxane-4,6-dione]	–	5.25	98	–
COc1ccc(NC(=C2C(=O)OC(C)(C)OC2=O)N(Cc2ccc(CC(C)(C)C)cc2)CC2(c3ccccc3)CCCC2)c(OC)c1 [Compound 10, 5-[[(2,4-Dimethoxyphenyl)amino][[[4-(2,2-dimethylpropyl)phenyl]methyl)][(1-penylcyclo-pentylmethyl]amino]methylene]-2,2-dimethyl-3-dioxane-4,6-dione]	–	6.54	97	–
COc1ccc(NC(=C2C(=O)OC(C)(C)OC2=O)N(Cc2ccc(CC(C)C)cc2)[C@@H](CO[Si](C)(C)C(C)(C)C)Cc2ccccc2)c(OC)c1 [Compound 11]	–	–	98	5.55
COc1ccc(NC(=C2C(=O)OC(C)(C)OC2=O)N(Cc2ccc(CC(C)C)cc2)[C@@H](CO)Cc2ccccc2)c(OC)c1 [Compound 12, (R)-5-[[(2,4-Dimethoxyphenyl)amino][[(1R)1-(hydroxymethyl)-2-phenylethyl][[4-(2-methyl-propyl)phenyl]methyl]amino]methylene]-2,2-dimethyl-1,3-dioxane-4.6-dione]	–	–	96	–
CCCCCC(C)N(Cc1ccc(CC(C)C)cc1)C(Nc1cc(C(C)(C)C)c(O)c(C(C)(C)C)c1)=C1C(=O)OC(C)(C)OC1=O (stereo not drawn) [Compound 13]	–	6.72	99	–
CCCCCCCN(Cc1ccc(C(C)(C)C)cc1)C(Nc1ccc(F)cc1F)=C1C(=O)OC(C)(C)OC1=O [Compound 15]	63	–	–	–
CCCCCCCN(Cc1ccc(C(C)(C)C)cc1)C(Nc1c(C)cc(N(C)C)cc1C)=C1C(=O)OC(C)(C)OC1=O [Compound 16, 5-[[[4-(Dimethylamino)-2,6-dimethylphenyl]amino][[[4-(1,1-dimethylethyl)phenyl]methyl]heptylamino]methylene]-2,2-dimethyl-1,3-dioxane-4,6-dione]	–	6.01	84	–
CCCCCCCN(Cc1ccc(CCCCC)cc1)C(Nc1ccc(C(F)(F)F)cc1)=C1C(=O)OC(C)(C)OC1=O [Compound 17, 5-[[[4-(Trifluoromethyl)phenyl]amino][heptyl[(4-pentylphenyl)methyl]amino]methylene]-2,2-dimethyl-1,3-dioxane-4,6-dione]	–	–	72	–
CCCCCCCN(Cc1ccc(CCCCCC)cc1)C(Nc1ccc(F)cc1F)=C1C(=O)OC(C)(C)OC1=O [Compound 18, 5-[[(2,4-Difluorophenyl)amino][[(4-hexylphenyl)methyl]heptylamino]methylene]-2,2-dimethyl-1,3-dioxane-4,6-dione]	60	–	–	–
CCCCCCCN(Cc1ccc(C(C)(C)C)cc1)C(Nc1ccc(OCCCC)cc1)=C1C(=O)OC(C)(C)OC1=O [Compound 19]	–	5.62	98	–
CCCCCC(C)N(Cc1ccc(C(C)(C)C)cc1)C(Nc1cc(OC)c(OC)c(OC)c1)=C1C(=O)OC(C)(C)OC1=O (stereo not drawn) [Compound 20]	–	6.11	96	–
CCCCCCCN(Cc1ccc(OCCC(C)C)cc1)C(Nc1cc(OC)c(OC)c(OC)c1)=C1C(=O)OC(C)(C)OC1=O [Compound 23]	–	5.46	85	–
CCCCCCCN(Cc1ccc(C(C)(C)C)cc1)C(Nc1ccc(OCCCCC)cc1)=C1C(=O)OC(C)(C)OC1=O [Compound 24]	–	5.64	96	–
CCCCCCCN(Cc1ccc(C(C)(C)C)cc1)C(Nc1ccc(OCCCCCC)cc1)=C1C(=O)OC(C)(C)OC1=O [Compound 25, 5-[[[[4-(1,1-Dimethylethyl)phenyl]methyl]heptylamino][[4-(hexyloxy)phenyl]amino]methylene]2,2-dimethyl-3-dioxane-4,6-dione]	–	6.30	94	–
CCCCCCCN(Cc1ccc(C(C)(C)C)cc1)C(Nc1ccc(OCc2ccccc2)cc1)=C1C(=O)OC(C)(C)OC1=O [Compound 26]	–	6.04	92	–
CCCCCCCN(Cc1ccc(C(C)(C)C)cc1)C(Nc1ccc(C(F)(F)F)cc1)=C1C(=O)OC(C)(C)OC1=O [Compound 30, 5-[[[[4-(1,1-Dimethylethyl)phenyl]methyl]heptylamino][[4-(trifluoromethyl)phenyl]amino]-methylene]-2,2-dimethyl-1,3-dioxane-4,6-dione]	–	–	42	–

SMILES	% Inhibition (50 μM) [%]	pIC50 (read-out: IC50)	% Inhibition (25 μM) [%]	pIC50
CCCCc1ccc(CN(C(Nc2ccc(OC)cc2OC)=C2C(=O)OC(C)(C)OC2=O)C(C)CCCC(C)(C)O)cc1 (stereo not drawn) [Compound 44, 5-[[[(4-Butylphenyl)methyl](5-hydroxy-1,5-dimethylhexyl)amino][(2,4-dimethoxyphenyl)-amino]methylene]-2,2-dimethyl-1,3-dioxane-4,6-dione]	–	4.82	82	–
CC(C)Cc1ccc(CN(C(Nc2ccc(N(C)C)cc2)=C2C(=O)OC(C)(C)OC2=O)C2CCN(Cc3ccccc3)CC2)cc1 [Compound 49, 5-[[[4-(Dimethylamino)phenyl]amino][[[4-(2-methylpropyl)phenyl]methyl][1-(phenylmethyl)-4-piperidinyl]amino]methylene]-2,2-dimethyl-1,3-dioxane-4,6-dione]	–	5.35	80	–
COc1ccc(NC(=C2C(=O)OC(C)(C)OC2=O)N(Cc2ccc(CC(C)C)cc2)C(C)CN2CCOCC2)c(OC)c1 (stereo not drawn) [Compound 50, 5-[[(2,4-Dimethoxyphenyl)amino][[1-methyl-2-(4-morpholinyl)ethyl][[4-(2-methylpropyl)-phenyl]methyl]amino]methylene]-2,2-dimethyl-1,3-dioxane-4,6-dione]	–	–	74	–
CC(C)Cc1ccc(CN(C(Nc2ccc(N(C)C)cc2)=C2C(=O)OC(C)(C)OC2=O)C(C)CN2CCOCC2)cc1 (stereo not drawn) [Compound 51]	–	–	66	–
CCCCCC(C)N(Cc1ccc(CCC(C)C)cc1)C(Nc1ccc(OC)cc1OC)=C1C(=O)OC(C)(C)OC1=O (stereo not drawn) [Compound 56, 5-[[(2,4-Dimethoxyphenyl)amino][[[4-(3-methylbutyl)phenyl]methyl](1-methylhexyl)amino]-methylene]-2,2-dimethyl-1,3-dioxane-4,6-dione]	–	5.85	97	–
CCCCCC(C)N(Cc1ccc(CCC(C)C)cc1)C(Nc1ccc(N(C)C)cc1)=C1C(=O)OC(C)(C)OC1=O (stereo not drawn) [Compound 57, 5-[[[4-(Dimethylamino)phenyl]amino][[[4-(3-methylbutyl)phenyl]methyl](1-methylhexyl)-amino]methylene]-2,2-dimethyl-1,3-dioxane-4,6-dione]	–	6.39	96	–
CCCCCC(C)N(Cc1ccc(OCC(C)C)cc1)C(Nc1ccc(OC)cc1OC)=C1C(=O)OC(C)(C)OC1=O (stereo not drawn) [Compound 58, 5-[[(2,4-Dimethoxyphenyl)amino][(1-methylhexyl)[[4-(2-methylpropoxy)phenyl]methyl]-amino]methylene]-2,2-dimethyl-1,3-dioxane-4,6-dione]	–	6.26	99	–
CCCCC(CC)N(Cc1ccc(CC(C)(C)C)cc1)C(Nc1ccc(OC)cc1OC)=C1C(=O)OC(C)(C)OC1=O (stereo not drawn) [Compound 60, 5-[[(2,4-Dimethoxyphenyl)amino][[[4-(2,2-dimethylpropyl)phenyl]methyl](1-ethylpentyl)amino]-methylene]-2,2-dimethyl-1,3-dioxane-4,6-dione]	–	6.27	99	–
CCCCCC(C)N(Cc1ccc(CCC(C)C)cc1)C(Nc1ccc(N(C)C)cc1C)=C1C(=O)OC(C)(C)OC1=O (stereo not drawn) [Compound 61]	–	6.80	98	–
CCCCC(CC)N(Cc1ccc(CC(C)(C)C)cc1)C(Nc1ccc(N(C)C)cc1)=C1C(=O)OC(C)(C)OC1=O (stereo not drawn) [Compound 62]	–	6.19	99	–
CCCCCC(C)N(Cc1ccc(OCC(C)C)cc1)C(Nc1ccc(N(C)C)cc1)=C1C(=O)OC(C)(C)OC1=O (stereo not drawn) [Compound 63]	–	7.05	99	–
CCCCCC(C)N(Cc1ccc(CC(C)(C)C)cc1)C(Nc1ccc(C)cc1C)=C1C(=O)OC(C)(C)OC1=O (stereo not drawn) [Compound 64]	–	6.31	99	–
CCCCCCCCCCN(Cc1ccc(C(C)(C)C)cc1)C(Nc1ccc(OC)cc1OC)=C1C(=O)OC(C)(C)OC1=O [Compound 65]	–	5.64	98	–
CCCCC(CC)N(Cc1ccc(CC(C)(C)C)cc1)C(Nc1ccc(N(C)C)cc1C)=C1C(=O)OC(C)(C)OC1=O (stereo not drawn) [Compound 66, 5-[[[4-(Dimethylamino)-2-methylphenyl]amino][[[4-(2,2-dimethylpropyl)phenyl]methyl](1-ethylpentyl)amino]methylene]-2,2-dimethyl-1,3-dioxane-4,6-dione]	–	6.72	98	–
CCCCCCCN(Cc1ccc(C(C)(C)C)cc1)C(Nc1ccc(F)cc1)=C1C(=O)OC(C)(C)OC1=O [Compound 67]	89	5.35	–	–
CCCCCC(C)N(Cc1ccc(OCC(C)C)cc1)C(Nc1ccc(C)cc1C)=C1C(=O)OC(C)(C)OC1=O (stereo not drawn) [Compound 68]	–	6.55	98	–
CCCCCCCN(Cc1ccc(C(C)(C)C)cc1)C(Nc1cc(OC)c(OC)c(OC)c1)=C1C(=O)OC(C)(C)OC1=O [Compound 69]	–	5.55	98	–
CCCCCCCC/C=C\CCCCCCCCN(Cc1ccc(C(C)(C)C)cc1)C(Nc1ccc(OC)cc1OC)=C1C(=O)OC(C)(C)OC1=O [Compound 70, 5-[[(2,4-Dimethoxyphenyl)amino][[[4-(1,1-dimethylethyl)phenyl]methyl]((Z)-9-octadecenyl)-amino]methylene]-2,2-dimethyl-1,3-dioxane-2,4-dione]	–	–	24	–
